# Species on record: Rattus norvegicus
# Assay: Open TG-GATES - Regimen: Daily Repeat
# Assay type: toxicity, organism-based, Sprague-Dawley
# Set-up: regimen Daily Repeat, gender Male, age 6 weeks
# Details: in vivo, po, 400 mg/kg, route gavage, dose level High; for APTT / Bas / Eos / Fbg / Hb / Ht / Lym / MCH / MCHC / MCV / Mono / Neu / PT / Plat / RBC / Ret / WBC: tissue Blood; for KIDNEY_L / KIDNEY_R / KIDNEY_TOTAL: tissue Kidney; for LIVER: tissue Liver; for A/G / ALP / ALT / AST / BUN / CRE / Ca / Cl / DBIL / GLC / IP / K / LDH / Na / PL / RALB / TBIL / TC / TG / TP / gamma-GTP: tissue Plasma
compound,measurement,setting,value
Cc1cccc(C)c1OCC(C)N (configuration not stated) [MEXILETINE],TERMINAL_BW,"72 h, time 3 day",229.5 g
same,APTT,"72 h, time 3 day",21.1 s
same,Bas,"72 h, time 3 day",0%
same,Eos,"72 h, time 3 day",1%
same,Fbg,"72 h, time 3 day",337.4 mg/dL
same,Hb,"72 h, time 3 day",13.2 g/dL
same,Ht,"72 h, time 3 day",40.8%
same,Lym,"72 h, time 3 day",76.6%
same,MCH,"72 h, time 3 day",19.9 pg
same,MCHC,"72 h, time 3 day",32.5%
same,MCV,"72 h, time 3 day",61.3 fL
same,Mono,"72 h, time 3 day",2.2%
same,Neu,"72 h, time 3 day",19.6%
same,PT,"72 h, time 3 day",15.8 s
same,Plat,"72 h, time 3 day",111.4 x10_4/uL
same,RBC,"72 h, time 3 day",666.8 x10_4/ul
same,Ret,"72 h, time 3 day",5.4%
same,WBC,"72 h, time 3 day",88.4 x10_2/uL
same,KIDNEY_L,"72 h, time 3 day",1 g
same,KIDNEY_R,"72 h, time 3 day",1.1 g
same,KIDNEY_TOTAL,"72 h, time 3 day",2.1 g
same,LIVER,"72 h, time 3 day",10.3 g
same,A/G,"72 h, time 3 day",1.3
same,ALP,"72 h, time 3 day",1772.8 IU/L
same,ALT,"72 h, time 3 day",54 IU/L
same,AST,"72 h, time 3 day",75.6 IU/L
same,BUN,"72 h, time 3 day",13.8 mg/dL
same,CRE,"72 h, time 3 day",0.1 mg/dL
same,Ca,"72 h, time 3 day",10.5 mg/dL
same,Cl,"72 h, time 3 day",106.2 meq/L
same,DBIL,"72 h, time 3 day",0 mg/dL
same,GLC,"72 h, time 3 day",191.4 mg/dL
same,IP,"72 h, time 3 day",7.4 mg/dL
same,K,"72 h, time 3 day",4 meq/L
same,LDH,"72 h, time 3 day",170 IU/L
same,Na,"72 h, time 3 day",142.2 meq/L
same,PL,"72 h, time 3 day",155.6 mg/dL
same,RALB,"72 h, time 3 day",3.2 g/dL
same,TBIL,"72 h, time 3 day",0.008 mg/dL
same,TC,"72 h, time 3 day",86 mg/dL
same,TG,"72 h, time 3 day",87.4 mg/dL
same,TP,"72 h, time 3 day",5.6 g/dL
same,gamma-GTP,"72 h, time 3 day",1.4 IU/L
same,TERMINAL_BW,"[…], time 7 day",249.3 g
same,TERMINAL_BW,"[…], time 14 day",299.7 g
same,TERMINAL_BW,"[…], time 28 day",372.4 g
same,APTT,"[…], time 7 day",22.2 s
same,Bas,"[…], time 7 day",0%
same,Eos,"[…], time 7 day",0.4%
same,Fbg,"[…], time 7 day",343.8 mg/dL
same,Hb,"[…], time 7 day",13.8 g/dL
same,Ht,"[…], time 7 day",41.9%
same,Lym,"[…], time 7 day",79%
same,MCH,"[…], time 7 day",20.1 pg
same,MCHC,"[…], time 7 day",32.9%
same,MCV,"[…], time 7 day",61 fL
same,Mono,"[…], time 7 day",2%
same,Neu,"[…], time 7 day",17%
same,PT,"[…], time 7 day",16.4 s
same,Plat,"[…], time 7 day",111.8 x10_4/uL
same,RBC,"[…], time 7 day",687.2 x10_4/ul
same,Ret,"[…], time 7 day",4%
same,WBC,"[…], time 7 day",107.9 x10_2/uL
same,APTT,"[…], time 14 day",21.7 s
same,Bas,"[…], time 14 day",0%
same,Eos,"[…], time 14 day",1%
same,Fbg,"[…], time 14 day",292.2 mg/dL
same,Hb,"[…], time 14 day",12.9 g/dL
same,Ht,"[…], time 14 day",39.9%
same,Lym,"[…], time 14 day",75.8%
same,MCH,"[…], time 14 day",20.5 pg
same,MCHC,"[…], time 14 day",32.4%
same,MCV,"[…], time 14 day",63.2 fL
same,Mono,"[…], time 14 day",2.4%
same,Neu,"[…], time 14 day",20.6%
same,PT,"[…], time 14 day",16.5 s
same,Plat,"[…], time 14 day",108.6 x10_4/uL
same,RBC,"[…], time 14 day",632.4 x10_4/ul
same,Ret,"[…], time 14 day",7.4%
same,WBC,"[…], time 14 day",62.3 x10_2/uL
same,APTT,"[…], time 28 day",23.2 s
same,Bas,"[…], time 28 day",0%
same,Eos,"[…], time 28 day",1%
same,Fbg,"[…], time 28 day",334.4 mg/dL
same,Hb,"[…], time 28 day",15.5 g/dL
same,Ht,"[…], time 28 day",45.2%
same,Lym,"[…], time 28 day",76%
same,MCH,"[…], time 28 day",19.1 pg
same,MCHC,"[…], time 28 day",34.3%
same,MCV,"[…], time 28 day",55.6 fL
same,Mono,"[…], time 28 day",2.4%
same,Neu,"[…], time 28 day",19.4%
same,PT,"[…], time 28 day",16.1 s
same,Plat,"[…], time 28 day",101.2 x10_4/uL
same,RBC,"[…], time 28 day",813.6 x10_4/ul
same,Ret,"[…], time 28 day",2.4%
same,WBC,"[…], time 28 day",104.8 x10_2/uL
same,KIDNEY_L,"[…], time 7 day",1.1 g
same,KIDNEY_R,"[…], time 7 day",1.1 g
same,KIDNEY_TOTAL,"[…], time 7 day",2.3 g
same,KIDNEY_L,"[…], time 14 day",1.3 g
same,KIDNEY_R,"[…], time 14 day",1.3 g
same,KIDNEY_TOTAL,"[…], time 14 day",2.6 g
same,KIDNEY_L,"[…], time 28 day",1.5 g
same,KIDNEY_R,"[…], time 28 day",1.5 g
same,KIDNEY_TOTAL,"[…], time 28 day",3 g
same,LIVER,"[…], time 7 day",11.5 g
same,LIVER,"[…], time 14 day",13.9 g
same,LIVER,"[…], time 28 day",16.7 g
same,A/G,"[…], time 7 day",1.2
same,ALP,"[…], time 7 day",1505.6 IU/L
same,ALT,"[…], time 7 day",50.2 IU/L
same,AST,"[…], time 7 day",76 IU/L
same,BUN,"[…], time 7 day",18 mg/dL
same,CRE,"[…], time 7 day",0.2 mg/dL
same,Ca,"[…], time 7 day",10.9 mg/dL
same,Cl,"[…], time 7 day",104.6 meq/L
same,DBIL,"[…], time 7 day",0 mg/dL
same,GLC,"[…], time 7 day",180.6 mg/dL
same,IP,"[…], time 7 day",7.2 mg/dL
same,K,"[…], time 7 day",4.2 meq/L
same,LDH,"[…], time 7 day",130.4 IU/L
same,Na,"[…], time 7 day",143 meq/L
same,PL,"[…], time 7 day",168.4 mg/dL
same,RALB,"[…], time 7 day",3.1 g/dL
same,TBIL,"[…], time 7 day",0.004 mg/dL
same,TC,"[…], time 7 day",85.6 mg/dL
same,TG,"[…], time 7 day",138.2 mg/dL
same,TP,"[…], time 7 day",5.7 g/dL
same,gamma-GTP,"[…], time 7 day",1.2 IU/L
same,A/G,"[…], time 14 day",1.1
same,ALP,"[…], time 14 day",1631.8 IU/L
same,ALT,"[…], time 14 day",70.2 IU/L
same,AST,"[…], time 14 day",97.6 IU/L
same,BUN,"[…], time 14 day",19.4 mg/dL
same,CRE,"[…], time 14 day",0.2 mg/dL
same,Ca,"[…], time 14 day",10.4 mg/dL
same,Cl,"[…], time 14 day",105.8 meq/L
same,DBIL,"[…], time 14 day",0 mg/dL
same,GLC,"[…], time 14 day",185 mg/dL
same,IP,"[…], time 14 day",7.1 mg/dL
same,K,"[…], time 14 day",4.4 meq/L
same,LDH,"[…], time 14 day",185.4 IU/L
same,Na,"[…], time 14 day",141 meq/L
same,PL,"[…], time 14 day",182.6 mg/dL
same,RALB,"[…], time 14 day",3.1 g/dL
same,TBIL,"[…], time 14 day",0 mg/dL
same,TC,"[…], time 14 day",88 mg/dL
same,TG,"[…], time 14 day",186.8 mg/dL
same,TP,"[…], time 14 day",5.9 g/dL
same,gamma-GTP,"[…], time 14 day",2.2 IU/L
same,A/G,"[…], time 28 day",1.1
same,ALP,"[…], time 28 day",1359 IU/L
same,ALT,"[…], time 28 day",43.6 IU/L
same,AST,"[…], time 28 day",70 IU/L
same,BUN,"[…], time 28 day",18.2 mg/dL
same,CRE,"[…], time 28 day",0.2 mg/dL
same,Ca,"[…], time 28 day",10.5 mg/dL
same,Cl,"[…], time 28 day",104.2 meq/L
same,DBIL,"[…], time 28 day",0 mg/dL
same,GLC,"[…], time 28 day",183.8 mg/dL
same,IP,"[…], time 28 day",6.6 mg/dL
same,K,"[…], time 28 day",4.3 meq/L
same,LDH,"[…], time 28 day",144.6 IU/L
same,Na,"[…], time 28 day",142.2 meq/L
same,PL,"[…], time 28 day",180.4 mg/dL
same,RALB,"[…], time 28 day",3.1 g/dL
same,TBIL,"[…], time 28 day",0.01 mg/dL
same,TC,"[…], time 28 day",91.4 mg/dL
same,TG,"[…], time 28 day",162.6 mg/dL
same,TP,"[…], time 28 day",6.1 g/dL
same,gamma-GTP,"[…], time 28 day",1.8 IU/L

# From ChEMBL document CHEMBL3885861, “Open TG-GATES”
